{"source": "patent US4307114A", "about": "“Aldose reductase inhibition by (Z)-5-fluoro-2-methyl-1-[[4-(methylsulfinyl)phenyl]methylene]-1H-indene- 3-acetic acid” (Ayerst, McKenna & Harrison, Inc., priority 1980, dated 1981)", "key": {"lens aldose reductase": {"molecular_target": "T1, lens aldose reductase (Bos taurus, UniProt P16116)", "T1 construct": "preparation of the enzyme from bovine lens; from tissue; host or cells: bovine lens", "assay": "in vitro aldose reductase inhibition test (modified Hayman and Kinoshita procedure, enzyme from bovine lens)", "type": "biochemical", "experimental": "In the present case the procedure of Hayman and Kinoshita is modified in that the final chromatography step is omitted in the preparation of the enzyme from bovine lens.\nThe following results were obtained when sulindac was evaluated in the above in vitro test: […]"}, "galactosaemic rats": {"tested_on": "galactosaemic rats", "assay": "dulcitol accumulation in lenses and sciatic nerves of galactosaemic rats", "type": "in vivo, rat", "conditions": "for Dulcitol Accumulation Sicatic Nerves Percent Decrease / Dulcitol Accumulation Lenses Percent Decrease / Dulcitol Accumulation Sicatic Nerves / Dulcitol Accumulation Lenses: four days", "source_text": "The aldose reductase inhibiting property of sulindac and its utilization in diminishing and alleviating diabetic complications also are demonstrable in experiments using galactosaemic rats, see D. Dvornik et al., Science, 182, 1146 (1973). Such experiments are exemplified hereinbelow after the listing of the following general comments pertaining to these experiments:\n(a) Four or more groups of six male rats, 50-70 g, Sprague-Dawley strain, were used. The first group, the control group, was fed a mixture of laboratory chow (rodent laboratory chow, Purina) and glucose at 20% (w/w %) concentration. The untreated galactosaemic group was fed a similar diet in which galactose is substituted for glucose. The other groups were fed diets containing various amounts of sulindac in the galactose containing diet. The concentration of galactose in the diet of the treated groups was the same as that for the untreated galactosaemic group.\n(b) After four days, the animals were killed by decapitation. The eyeballs were removed and punctured with a razor blade; the freed lenses were rolled gently on filter paper and weighed. The sciatic nerves were dissected as completely as possible and weighed. Both tissues were frozen and kept up to two weeks before being analyzed for dulcitol.\n(c) The tissues were homoginized in 5% (w/v) trichloroacetic acid and the polyol determination on the extracts was performed by a modification of the procedure of M. Kraml and L. Cosyns, Clin. Biochem., 2, 373 (1969). Only two minor reagent changes were made: (a) The rinsing mixture was an aqueous 5% (w/v) trichloroacetic acid solution and (b) the stock solution was prepared by dissolving 25 mg of dulcitol in 100 ml of an aqueous trichloroacetic acid solution. [N.B.: For each experiment the average value found in the tissue from rats fed the glucose diet was substracted from the individual values found in the corresponding rat tissue to obtain the amount of polyol accumulated]."}, "[1]": {"conditions": "Experiment 2, 62 mg/kg/day in diet, p < 0.01"}}}
{"smiles": "CC1=C(CC(=O)O)c2cc(F)ccc2/C1=C\\c1ccc([S+](C)[O-])cc1", "note": "(stereo not drawn) [Sulindac, (Z)-5-Fluoro-2-methyl-1-[[4-(methylsulfinyl)phenyl]methylene]-1H-indene-3-acetic acid]", "values": [{"measurement": "inhibition of lens aldose reductase (in words)", "setting": "lens aldose reductase", "value": "potent inhibitor of lens aldose reductase"}, {"measurement": "Percent Inhibition", "setting": "lens aldose reductase; concentration 10^-5 Mole/l", "value": 88, "unit": "%"}, {"measurement": "Percent Inhibition", "setting": "lens aldose reductase; concentration 10^-6 Mole/l", "value": 60, "unit": "%"}, {"measurement": "Percent Inhibition", "setting": "lens aldose reductase; concentration 10^-7 Mole/l", "value": 18, "unit": "%"}, {"measurement": "Dulcitol Accumulation Sicatic Nerves Percent Decrease", "setting": "galactosaemic rats; Experiment 1, 31 mg/kg/day in diet, p < 0.001", "value": 39, "unit": "%"}, {"measurement": "Dulcitol Accumulation Lenses Percent Decrease", "setting": "galactosaemic rats; Experiment 1, 31 mg/kg/day in diet, t test N.S.", "value": 8, "unit": "%"}, {"measurement": "Dulcitol Accumulation Sicatic Nerves", "setting": "galactosaemic rats; Experiment 1, 31 mg/kg/day in galactose diet, untreated 1.67 ± 0.08", "value": "1.02 ± 0.09", "unit": "µg/mg"}, {"measurement": "Dulcitol Accumulation Lenses", "setting": "galactosaemic rats; Experiment 1, 31 mg/kg/day in galactose diet, untreated 12.01 ± 0.38", "value": "11.10 ± 0.28", "unit": "µg/mg"}, {"measurement": "Dulcitol Accumulation Lenses Percent Decrease", "setting": "galactosaemic rats; Experiment 2, 25 mg/kg/day in diet, p < 0.01", "value": 14, "unit": "%"}, {"measurement": "Dulcitol Accumulation Sicatic Nerves Percent Decrease", "setting": "galactosaemic rats; Experiment 2, 25 mg/kg/day in diet, t test N.S.", "value": 36, "unit": "%"}, {"measurement": "Dulcitol Accumulation Sicatic Nerves", "setting": "galactosaemic rats; Experiment 2, 25 mg/kg/day in galactose diet, untreated 1.30 ± 0.14", "value": "0.83 ± 0.19", "unit": "µg/mg"}, {"measurement": "Dulcitol Accumulation Lenses", "setting": "galactosaemic rats; Experiment 2, 25 mg/kg/day in galactose diet, untreated 12.10 ± 0.30", "value": "10.46 ± 0.32", "unit": "µg/mg"}, {"measurement": "Dulcitol Accumulation Lenses Percent Decrease", "setting": "galactosaemic rats; Experiment 2, 47 mg/kg/day in diet, p < 0.01", "value": 12, "unit": "%"}, {"measurement": "Dulcitol Accumulation Sicatic Nerves Percent Decrease", "setting": "galactosaemic rats; Experiment 2, 47 mg/kg/day in diet, p < 0.05", "value": 34, "unit": "%"}, {"measurement": "Dulcitol Accumulation Sicatic Nerves", "setting": "galactosaemic rats; Experiment 2, 47 mg/kg/day in galactose diet, untreated 1.30 ± 0.14", "value": "0.85 ± 0.10", "unit": "µg/mg"}, {"measurement": "Dulcitol Accumulation Lenses", "setting": "galactosaemic rats; Experiment 2, 47 mg/kg/day in galactose diet, untreated 12.10 ± 0.30", "value": "10.71 ± 0.22", "unit": "µg/mg"}, {"measurement": "Dulcitol Accumulation Lenses Percent Decrease", "setting": "galactosaemic rats; [1]", "value": 17, "unit": "%"}, {"measurement": "Dulcitol Accumulation Sicatic Nerves Percent Decrease", "setting": "galactosaemic rats; [1]", "value": 49, "unit": "%"}, {"measurement": "Dulcitol Accumulation Sicatic Nerves", "setting": "galactosaemic rats; Experiment 2, 62 mg/kg/day in galactose diet, untreated 1.30 ± 0.14", "value": "0.67 ± 0.04", "unit": "µg/mg"}, {"measurement": "Dulcitol Accumulation Lenses", "setting": "galactosaemic rats; Experiment 2, 62 mg/kg/day in galactose diet, untreated 12.10 ± 0.30", "value": "10.06 ± 0.43", "unit": "µg/mg"}, {"measurement": "accumulation of dulcitol in the lenses and sciatic nerves of rats fed galactose (in words)", "setting": "galactosaemic rats; as compared to an untreated animal", "value": "diminishes and alleviates the accumulation of dulcitol"}]}
